Data: article PMC5564600 (Oncotarget, 2017)

How the values were obtained:
Assay in all cases: biochemical
Assay type in all cases: binding
panel of 442 kinases [1] = biological target: T1, panel of 442 kinases (Homo sapiens, UniProt Q8NFD2); conditions: ANKK1; for remaining activity at 1 µM: read-out: % of control at 1 µM
T1 construct: purchased Ambit Biosciences (scanMAXX KINOMEscan)
T1 sequence (Q8NFD2 1-765): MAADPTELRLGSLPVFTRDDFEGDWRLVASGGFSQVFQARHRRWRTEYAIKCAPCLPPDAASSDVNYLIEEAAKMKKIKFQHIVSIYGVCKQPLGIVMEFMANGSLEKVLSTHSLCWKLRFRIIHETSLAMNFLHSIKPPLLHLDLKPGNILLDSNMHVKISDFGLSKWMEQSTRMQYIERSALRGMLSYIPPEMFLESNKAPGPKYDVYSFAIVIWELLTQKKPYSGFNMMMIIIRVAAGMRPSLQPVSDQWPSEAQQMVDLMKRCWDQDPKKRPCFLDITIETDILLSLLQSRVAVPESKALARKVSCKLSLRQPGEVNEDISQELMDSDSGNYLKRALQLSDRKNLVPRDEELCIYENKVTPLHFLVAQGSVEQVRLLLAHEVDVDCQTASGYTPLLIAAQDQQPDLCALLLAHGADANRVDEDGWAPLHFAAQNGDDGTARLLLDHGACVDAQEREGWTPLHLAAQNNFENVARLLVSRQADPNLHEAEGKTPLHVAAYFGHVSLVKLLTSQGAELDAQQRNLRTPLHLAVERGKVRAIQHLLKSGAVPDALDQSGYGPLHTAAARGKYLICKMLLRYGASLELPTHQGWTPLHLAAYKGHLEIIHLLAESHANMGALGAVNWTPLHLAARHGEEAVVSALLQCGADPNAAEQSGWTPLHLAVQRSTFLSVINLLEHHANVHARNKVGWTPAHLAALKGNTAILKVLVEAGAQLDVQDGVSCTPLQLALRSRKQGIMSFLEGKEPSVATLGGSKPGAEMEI

panel of 442 kinases [2] = biological target: T2, panel of 442 kinases (Homo sapiens, UniProt P29317); conditions: EPHA2; for remaining activity at 1 µM: read-out: % of control at 1 µM
T2 construct: purchased Ambit Biosciences (scanMAXX KINOMEscan)
T2 sequence (P29317 24-976): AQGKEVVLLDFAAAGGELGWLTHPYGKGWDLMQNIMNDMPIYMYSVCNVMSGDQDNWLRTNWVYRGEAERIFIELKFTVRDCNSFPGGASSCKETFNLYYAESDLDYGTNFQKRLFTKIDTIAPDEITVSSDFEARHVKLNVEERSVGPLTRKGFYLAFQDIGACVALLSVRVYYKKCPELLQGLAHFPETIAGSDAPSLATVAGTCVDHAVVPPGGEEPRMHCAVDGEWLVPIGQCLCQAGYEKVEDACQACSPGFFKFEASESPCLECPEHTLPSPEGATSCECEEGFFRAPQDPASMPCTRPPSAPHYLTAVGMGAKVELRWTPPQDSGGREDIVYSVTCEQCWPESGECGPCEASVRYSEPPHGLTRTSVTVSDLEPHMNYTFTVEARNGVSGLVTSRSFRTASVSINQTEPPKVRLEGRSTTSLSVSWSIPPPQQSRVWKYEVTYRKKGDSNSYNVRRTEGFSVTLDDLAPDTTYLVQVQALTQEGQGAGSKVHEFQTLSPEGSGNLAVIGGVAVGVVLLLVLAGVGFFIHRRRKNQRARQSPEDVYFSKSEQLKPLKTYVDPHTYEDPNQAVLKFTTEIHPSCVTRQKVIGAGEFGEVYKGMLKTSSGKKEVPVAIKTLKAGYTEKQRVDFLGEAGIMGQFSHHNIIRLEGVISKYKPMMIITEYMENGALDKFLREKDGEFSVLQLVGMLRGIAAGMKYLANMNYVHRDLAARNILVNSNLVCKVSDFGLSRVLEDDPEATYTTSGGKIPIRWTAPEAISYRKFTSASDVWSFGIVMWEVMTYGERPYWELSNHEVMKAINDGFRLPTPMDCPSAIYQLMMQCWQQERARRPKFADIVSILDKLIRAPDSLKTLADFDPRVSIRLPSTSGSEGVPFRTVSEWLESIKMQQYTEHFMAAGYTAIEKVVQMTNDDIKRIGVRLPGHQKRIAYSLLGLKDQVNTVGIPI

panel of 442 kinases [3] = biological target: T3, panel of 442 kinases (Homo sapiens, UniProt P06213); conditions: kinase INSR; for remaining activity at 1 µM: read-out: % of control at 1 µM
T3 construct: purchased Ambit Biosciences (scanMAXX KINOMEscan)
T3 sequence (P06213 28-1382): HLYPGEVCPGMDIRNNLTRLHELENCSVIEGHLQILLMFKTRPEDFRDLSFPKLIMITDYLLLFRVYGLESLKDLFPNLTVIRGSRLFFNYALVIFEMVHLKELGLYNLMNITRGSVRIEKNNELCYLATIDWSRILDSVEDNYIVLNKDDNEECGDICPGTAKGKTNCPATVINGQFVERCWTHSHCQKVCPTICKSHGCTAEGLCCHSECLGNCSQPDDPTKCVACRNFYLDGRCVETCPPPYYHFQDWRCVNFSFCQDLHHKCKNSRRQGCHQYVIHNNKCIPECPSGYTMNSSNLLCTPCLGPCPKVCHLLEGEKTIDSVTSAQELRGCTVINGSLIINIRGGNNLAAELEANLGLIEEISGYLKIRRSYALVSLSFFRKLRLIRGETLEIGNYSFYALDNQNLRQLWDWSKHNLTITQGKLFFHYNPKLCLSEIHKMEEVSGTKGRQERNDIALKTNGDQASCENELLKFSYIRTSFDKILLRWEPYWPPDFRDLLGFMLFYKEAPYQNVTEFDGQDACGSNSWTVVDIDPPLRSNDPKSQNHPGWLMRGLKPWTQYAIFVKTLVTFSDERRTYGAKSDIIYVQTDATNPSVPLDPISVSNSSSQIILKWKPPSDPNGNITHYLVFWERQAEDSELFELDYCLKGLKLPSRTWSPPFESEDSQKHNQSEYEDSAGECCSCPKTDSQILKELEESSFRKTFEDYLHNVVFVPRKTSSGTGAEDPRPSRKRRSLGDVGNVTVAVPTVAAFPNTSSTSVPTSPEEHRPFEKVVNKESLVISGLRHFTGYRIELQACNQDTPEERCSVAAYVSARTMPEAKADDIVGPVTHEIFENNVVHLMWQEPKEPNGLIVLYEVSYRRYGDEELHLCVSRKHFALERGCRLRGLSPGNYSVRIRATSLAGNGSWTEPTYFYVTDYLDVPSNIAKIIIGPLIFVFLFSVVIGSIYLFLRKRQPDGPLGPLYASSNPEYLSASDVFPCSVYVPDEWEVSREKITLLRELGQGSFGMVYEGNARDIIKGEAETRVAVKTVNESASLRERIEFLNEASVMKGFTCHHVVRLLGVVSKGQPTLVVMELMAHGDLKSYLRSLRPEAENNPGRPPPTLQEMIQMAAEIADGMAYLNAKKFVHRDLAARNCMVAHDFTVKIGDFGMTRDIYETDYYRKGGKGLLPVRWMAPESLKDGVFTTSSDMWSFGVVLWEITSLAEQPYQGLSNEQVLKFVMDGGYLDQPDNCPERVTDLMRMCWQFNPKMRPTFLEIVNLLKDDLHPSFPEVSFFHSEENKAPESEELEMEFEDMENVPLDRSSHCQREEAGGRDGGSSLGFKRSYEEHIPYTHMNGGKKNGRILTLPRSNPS

panel of 442 kinases [4] = biological target: T4, panel of 442 kinases (Homo sapiens, UniProt P06241); conditions: kinase FYN; for remaining activity at 1 µM: read-out: % of control at 1 µM
T4 construct: purchased Ambit Biosciences (scanMAXX KINOMEscan)
T4 sequence (P06241 whole entry): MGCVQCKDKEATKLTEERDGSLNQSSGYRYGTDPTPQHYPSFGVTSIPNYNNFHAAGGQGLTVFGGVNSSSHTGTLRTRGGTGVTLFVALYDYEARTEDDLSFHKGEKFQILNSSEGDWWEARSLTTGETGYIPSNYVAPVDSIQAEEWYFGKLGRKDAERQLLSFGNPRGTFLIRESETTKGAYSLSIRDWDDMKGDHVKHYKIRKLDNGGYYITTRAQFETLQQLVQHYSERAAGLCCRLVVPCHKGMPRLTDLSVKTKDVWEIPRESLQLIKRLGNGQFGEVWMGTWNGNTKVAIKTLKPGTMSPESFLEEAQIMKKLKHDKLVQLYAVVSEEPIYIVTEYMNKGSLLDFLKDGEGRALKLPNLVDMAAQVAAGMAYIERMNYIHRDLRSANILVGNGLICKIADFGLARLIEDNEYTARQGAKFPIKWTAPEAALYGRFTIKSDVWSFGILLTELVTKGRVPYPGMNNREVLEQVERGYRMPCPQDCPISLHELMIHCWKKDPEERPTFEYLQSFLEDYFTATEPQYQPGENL

panel of 442 kinases [5] = biological target: T5, panel of 442 kinases (Homo sapiens, UniProt Q8TD19); conditions: kinase NEK9; for remaining activity at 1 µM: read-out: % of control at 1 µM
T5 construct: purchased Ambit Biosciences (scanMAXX KINOMEscan)
T5 sequence (Q8TD19 1-979): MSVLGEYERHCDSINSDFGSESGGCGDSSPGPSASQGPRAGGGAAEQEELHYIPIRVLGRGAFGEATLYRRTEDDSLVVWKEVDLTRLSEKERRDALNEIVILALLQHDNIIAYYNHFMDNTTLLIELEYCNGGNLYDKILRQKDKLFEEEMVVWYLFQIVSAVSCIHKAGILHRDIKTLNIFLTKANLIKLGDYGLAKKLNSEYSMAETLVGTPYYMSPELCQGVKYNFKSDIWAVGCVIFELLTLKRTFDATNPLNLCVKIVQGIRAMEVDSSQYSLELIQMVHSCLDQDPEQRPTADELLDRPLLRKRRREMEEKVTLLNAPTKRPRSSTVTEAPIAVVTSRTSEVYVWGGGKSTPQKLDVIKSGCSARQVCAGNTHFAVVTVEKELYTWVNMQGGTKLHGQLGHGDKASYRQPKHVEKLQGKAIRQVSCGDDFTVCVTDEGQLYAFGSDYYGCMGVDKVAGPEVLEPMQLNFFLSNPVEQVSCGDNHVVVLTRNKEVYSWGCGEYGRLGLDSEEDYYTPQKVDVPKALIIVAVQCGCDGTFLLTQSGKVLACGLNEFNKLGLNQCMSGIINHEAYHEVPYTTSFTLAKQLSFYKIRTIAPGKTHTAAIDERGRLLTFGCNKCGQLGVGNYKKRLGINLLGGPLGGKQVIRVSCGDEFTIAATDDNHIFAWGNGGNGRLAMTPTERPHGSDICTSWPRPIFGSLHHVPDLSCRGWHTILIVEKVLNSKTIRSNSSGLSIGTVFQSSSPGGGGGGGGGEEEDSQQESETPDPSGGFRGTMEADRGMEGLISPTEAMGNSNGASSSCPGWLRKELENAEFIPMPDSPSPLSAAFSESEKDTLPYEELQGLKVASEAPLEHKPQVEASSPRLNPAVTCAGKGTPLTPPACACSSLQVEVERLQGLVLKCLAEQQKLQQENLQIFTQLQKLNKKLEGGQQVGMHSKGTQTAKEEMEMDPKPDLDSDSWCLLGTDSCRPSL

[6] = 10 µM, read-out: % of control at 10 µM

Work on `Nc1cc(C(F)(F)F)c(-c2cc(N3CCOCC3)nc(N3CCOCC3)n2)cn1` [Buparlisib] yielded a remaining activity at 1 µM (panel of 442 kinases [1]) of 91%, a remaining activity at 10 µM (panel of 442 kinases [1]; [6]) of 94% and a remaining activity at 1 µM (panel of 442 kinases [2]) of 100%. It also gave a remaining activity at 10 µM (panel of 442 kinases [2]; [6]) of 100%, a remaining activity at 1 µM (panel of 442 kinases [3]) of 91% and a remaining activity at 10 µM (panel of 442 kinases [3]; [6]) of 77%. For the same compound, the remaining activity at 1 µM (panel of 442 kinases [4]) was 100%, the remaining activity at 10 µM (panel of 442 kinases [4]; [6]) was 100% and the remaining activity at 1 µM (panel of 442 kinases [5]) was 94%. For the same compound, the remaining activity at 10 µM (panel of 442 kinases [5]; [6]) was 100%.

With `Cn1c(=O)n(-c2ccc(C(C)(C)C#N)cc2)c2c3cc(-c4cnc5ccccc5c4)ccc3ncc21` [Dactolisib, 2-methyl-2-[4-(3-methyl-2-oxo-8-quinolin-3-yl-2,3-dihydroimidazo[4,5-c]quinolin-1-yl)-phenyl] propionitrile] the remaining activity at 1 µM (panel of 442 kinases [1]) was 100%, the remaining activity at 1 µM (panel of 442 kinases [2]) was 96% and the remaining activity at 1 µM (panel of 442 kinases [3]) was 74%. For the same compound, the remaining activity at 1 µM (panel of 442 kinases [4]) was 81% and the remaining activity at 1 µM (panel of 442 kinases [5]) was 96%.

`COc1ncc(-c2ccc3nccc(-c4ccnnc4)c3c2)cc1NS(=O)(=O)c1ccc(F)cc1F` [Omipalisib] gave a remaining activity at 1 µM (panel of 442 kinases [1]) of 100%, a remaining activity at 1 µM (panel of 442 kinases [2]) of 100% and a remaining activity at 1 µM (panel of 442 kinases [3]) of 92%. The remaining activity at 1 µM (panel of 442 kinases [4]) was 100% and the remaining activity at 1 µM (panel of 442 kinases [5]) was 100%.

In the case of `FC(F)c1nc2ccccc2n1-c1nc(N2CCOCC2)nc(N2CCOCC2)n1` [ZSTK474, 2-(difluoromethyl)-1-[4,6-di(4-morpholinyl)-1,3,5-triazin-2-yl]-1H-benzimidazole], the remaining activity at 1 µM (panel of 442 kinases [1]) is reported as 100%, the remaining activity at 1 µM (panel of 442 kinases [2]) is reported as 100% and the remaining activity at 1 µM (panel of 442 kinases [3]) is reported as 94%. It also gave a remaining activity at 1 µM (panel of 442 kinases [4]) of 80% and a remaining activity at 1 µM (panel of 442 kinases [5]) of 84%.
